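Exposure lasted 48 hours, with cells grown in 96-well plates and compounds tested at five concentrations. At the GI50, growth is halved.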 Activity calls are given as the source filed them. No stated cut-off is given here; in the data, active = GI50 up to about 1.1 µM and inactive = higher.
Experiments:
Assay in all cases: growth of human tumour cells (NCI), 48 h
RXF 393 = test system: RXF 393
SK-MEL-28 = test system: SK-MEL-28
NCI-H522 = test system: NCI-H522
SK-MEL-2 = test system: SK-MEL-2
SN12C = test system: SN12C
MOLT-4 = test system: MOLT-4
MDA-MB-231 = test system: MDA-MB-231
MDA-N = test system: MDA-N
UACC-62 = test system: UACC-62
UO-31 = test system: UO-31
SF-295 = test system: SF-295
PC-3 = test system: PC-3
MCF7 = test system: MCF7
HCC 2998 = test system: HCC 2998
COLO 205 = test system: COLO 205
SW-620 = test system: SW-620
DU-145 = test system: DU-145
MDA-MB-435 = test system: MDA-MB-435
A498 = test system: A498
SF-539 = test system: SF-539

Row | SMILES | GI50 (RXF 393) | GI50 (SK-MEL-28) | GI50 (NCI-H522) | GI50 (SK-MEL-2) | GI50 (SN12C) | GI50 (MOLT-4) | GI50 (MDA-MB-231) | GI50 (MDA-N) | GI50 (UACC-62) | GI50 (UO-31) | GI50 (SF-295) | GI50 (PC-3) | GI50 (MCF7) | GI50 (HCC 2998) | GI50 (COLO 205) | GI50 (SW-620) | GI50 (DU-145) | GI50 (MDA-MB-435) | GI50 (A498) | GI50 (SF-539)
1 | O=C1c2ccccc2C2(c3ccc(F)cc3)NCCN12 (stereo not drawn) | > 100 µM (inactive) | > 100 µM (inactive) | > 100 µM (inactive) | > 100 µM (inactive) | > 100 µM (inactive) | > 100 µM (inactive) | > 100 µM (inactive) | > 100 µM (inactive) | > 100 µM (inactive) | > 100 µM (inactive) | > 100 µM (inactive) | > 100 µM (inactive) | > 100 µM (inactive) | > 100 µM (inactive) | > 100 µM (inactive) | > 100 µM (inactive) | > 100 µM (inactive) | > 100 µM (inactive) | – | –
2 | CC1CCCC2=C1C(c1ccc(Cl)cc1)n1c(s/c(=C\c3ccc(Cl)cc3)c1=O)=N2 (stereo not drawn) | > 100 µM (inactive) | > 100 µM (inactive) | – | > 100 µM (inactive) | > 100 µM (inactive) | – | > 100 µM (inactive) | > 100 µM (inactive) | > 100 µM (inactive) | > 100 µM (inactive) | – | > 100 µM (inactive) | > 100 µM (inactive) | – | > 100 µM (inactive) | > 100 µM (inactive) | > 100 µM (inactive) | > 100 µM (inactive) | > 100 µM (inactive) | –
3 | COc1ccc(Oc2cccc(C3C4C(=O)N(c5ccc(C)c(Cl)c5)C(=O)C4ON3C(C(N)=O)c3ccccc3)c2)cc1 (stereo not drawn) | 7.6 µM (inactive) | 41.5 µM (inactive) | 10.6 µM (inactive) | 11.2 µM (inactive) | 12.4 µM (inactive) | 11.8 µM (inactive) | 34 µM (inactive) | 10.4 µM (inactive) | 10.9 µM (inactive) | 29.6 µM (inactive) | 35.9 µM (inactive) | 18.9 µM (inactive) | 15.3 µM (inactive) | – | 15.1 µM (inactive) | 20.9 µM (inactive) | 9.59 µM (inactive) | 15.5 µM (inactive) | 38.5 µM (inactive) | 10.4 µM (inactive)
4 | N#Cc1nc(C#N)c(NC(=O)c2ccccc2C(=O)O)[nH]1 | – | > 100 µM (inactive) | > 100 µM (inactive) | > 100 µM (inactive) | > 100 µM (inactive) | > 100 µM (inactive) | > 100 µM (inactive) | > 100 µM (inactive) | > 100 µM (inactive) | > 100 µM (inactive) | > 100 µM (inactive) | > 100 µM (inactive) | > 100 µM (inactive) | – | > 100 µM (inactive) | > 100 µM (inactive) | > 100 µM (inactive) | > 100 µM (inactive) | > 100 µM (inactive) | > 100 µM (inactive)
5 | CCOC(=O)c1c(SCCN2CCOCC2)n(-c2ccccc2)c(=S)n(-c2ccccc2)c1=O | 18.6 µM (inactive) | 24 µM (inactive) | 43.7 µM (inactive) | > 100 µM (inactive) | > 100 µM (inactive) | 26.7 µM (inactive) | 44 µM (inactive) | 36.5 µM (inactive) | 49.8 µM (inactive) | > 100 µM (inactive) | 25.6 µM (inactive) | – | 21.2 µM (inactive) | > 100 µM (inactive) | > 100 µM (inactive) | 21.1 µM (inactive) | > 10 µM (inactive) | 47.2 µM (inactive) | – | –
6 | O=C1C=C2CC[C@H]3[C@@H]4CC[C@H](OC(=O)c5cccc6cc7ccccc7nc56)[C@H]4CC[C@@H]3[C@H]2CC1 | – | > 100 µM (inactive) | 25.5 µM (inactive) | > 100 µM (inactive) | > 100 µM (inactive) | 54.3 µM (inactive) | 50.1 µM (inactive) | > 100 µM (inactive) | > 100 µM (inactive) | 79.6 µM (inactive) | > 100 µM (inactive) | > 100 µM (inactive) | > 100 µM (inactive) | – | > 100 µM (inactive) | > 100 µM (inactive) | > 100 µM (inactive) | > 100 µM (inactive) | > 100 µM (inactive) | > 100 µM (inactive)
7 | COC(=O)C1=C(O)C(C(=O)OC)[C@]2(O)[C@H](C(=O)OC)[C@H]1C[C@@H](c1ccc(OC)cc1)[C@H]2C(=O)OC (stereo partly drawn) | 16 µM (inactive) | 30.4 µM (inactive) | 2.36 µM (inactive) | 19.8 µM (inactive) | 21.5 µM (inactive) | 10.2 µM (inactive) | 30 µM (inactive) | 8.71 µM (inactive) | 12.1 µM (inactive) | 11.3 µM (inactive) | 44.6 µM (inactive) | – | 20.2 µM (inactive) | 17.8 µM (inactive) | 35.2 µM (inactive) | 17.7 µM (inactive) | – | 5.97 µM (inactive) | 7.74 µM (inactive) | 28.3 µM (inactive)
8 | CC(CN(C)C)C(=O)c1ccccc1C(=O)O (stereo not drawn) | 39.4 µM (inactive) | 31.2 µM (inactive) | 10.7 µM (inactive) | 15.7 µM (inactive) | 25.9 µM (inactive) | 20.4 µM (inactive) | 18.8 µM (inactive) | 29.5 µM (inactive) | 20.1 µM (inactive) | 47.2 µM (inactive) | 41.9 µM (inactive) | 23.9 µM (inactive) | 35.6 µM (inactive) | – | 25.4 µM (inactive) | 29.3 µM (inactive) | 30.2 µM (inactive) | 20.1 µM (inactive) | 40.8 µM (inactive) | –
9 | CC1(CC(=O)O)OC2CCCCCC2O1.NCc1ccccc1 (stereo not drawn) | > 100 µM (inactive) | > 100 µM (inactive) | > 100 µM (inactive) | > 100 µM (inactive) | > 100 µM (inactive) | > 100 µM (inactive) | > 100 µM (inactive) | 73.8 µM (inactive) | > 100 µM (inactive) | > 100 µM (inactive) | > 100 µM (inactive) | > 100 µM (inactive) | > 100 µM (inactive) | – | > 100 µM (inactive) | > 100 µM (inactive) | > 100 µM (inactive) | > 100 µM (inactive) | > 100 µM (inactive) | > 100 µM (inactive)
10 | C#CCOC(=O)C(N)CCSC (stereo not drawn) | > 100 µM (inactive) | > 100 µM (inactive) | > 100 µM (inactive) | > 100 µM (inactive) | > 100 µM (inactive) | > 100 µM (inactive) | > 100 µM (inactive) | > 100 µM (inactive) | > 100 µM (inactive) | > 100 µM (inactive) | > 100 µM (inactive) | > 100 µM (inactive) | > 100 µM (inactive) | – | > 100 µM (inactive) | > 100 µM (inactive) | > 100 µM (inactive) | > 100 µM (inactive) | > 100 µM (inactive) | –
11 | N#Cc1c(-c2cccc(Cl)c2)cc(-c2ccc(Cl)cc2)nc1N | 16.7 µM (inactive) | – | 15.1 µM (inactive) | 18.1 µM (inactive) | 17.3 µM (inactive) | 19 µM (inactive) | 16.1 µM (inactive) | 20 µM (inactive) | 16.5 µM (inactive) | 14.2 µM (inactive) | 17.2 µM (inactive) | 17.2 µM (inactive) | 16.3 µM (inactive) | – | 14.6 µM (inactive) | 17.5 µM (inactive) | 32.9 µM (inactive) | 19.1 µM (inactive) | – | 17.8 µM (inactive)
12 | Cc1nc2c(=S)[nH]ncc2[nH]1 | – | > 100 µM (inactive) | > 100 µM (inactive) | > 100 µM (inactive) | > 100 µM (inactive) | > 10 µM (inactive) | > 100 µM (inactive) | > 100 µM (inactive) | > 100 µM (inactive) | > 100 µM (inactive) | > 100 µM (inactive) | > 100 µM (inactive) | > 100 µM (inactive) | > 100 µM (inactive) | > 100 µM (inactive) | > 100 µM (inactive) | – | > 100 µM (inactive) | > 100 µM (inactive) | > 100 µM (inactive)
13 | Nc1n[n+]([O-])c2cnccc2[n+]1[O-] | – | 82.4 µM (inactive) | > 100 µM (inactive) | > 100 µM (inactive) | 44.2 µM (inactive) | 51.8 µM (inactive) | 42.9 µM (inactive) | 20.7 µM (inactive) | 30.1 µM (inactive) | > 100 µM (inactive) | 45.6 µM (inactive) | 36.1 µM (inactive) | > 10 µM (inactive) | > 100 µM (inactive) | 39.6 µM (inactive) | 38.4 µM (inactive) | > 100 µM (inactive) | 21.4 µM (inactive) | – | 47.9 µM (inactive)
14 | Cn1c2ccccc2c(=NNc2ccc(S(=O)(=O)N=C(N)N)cc2)c2ccccc21 | 0.611 µM (active) | – | 3.82 µM (inactive) | 13.5 µM (inactive) | 8.63 µM (inactive) | 3.31 µM (inactive) | 11.4 µM (inactive) | 12.4 µM (inactive) | 15.4 µM (inactive) | 4.33 µM (inactive) | 13.3 µM (inactive) | 7.94 µM (inactive) | 3.14 µM (inactive) | 6.25 µM (inactive) | 5.53 µM (inactive) | 7.55 µM (inactive) | 11.2 µM (inactive) | 11 µM (inactive) | – | 13.8 µM (inactive)
15 | COC(=O)C(CSSC[C@H](N/C(C)=C/C(C)=O)C(=O)OC)N/C(C)=C/C(C)=O (stereo partly drawn) | 15.1 µM (inactive) | > 100 µM (inactive) | 13.9 µM (inactive) | > 100 µM (inactive) | 48.8 µM (inactive) | 32.3 µM (inactive) | > 100 µM (inactive) | 52.8 µM (inactive) | 64.4 µM (inactive) | 47.5 µM (inactive) | 35.2 µM (inactive) | 54.1 µM (inactive) | 26.9 µM (inactive) | – | > 100 µM (inactive) | 34.1 µM (inactive) | 25.7 µM (inactive) | 74.5 µM (inactive) | > 100 µM (inactive) | 53 µM (inactive)
